In US6737383B1, “Herbicidal oxadiazolidines” (priority 1999, dated 2004):

Legend:
[1] = test system: bedstraw; assay: Test B pre/postemergence bedstraw; assay type: in vivo, Galium aparine; settings: Postemergence, Rate 62 g/ha; scale 0 to 10, 0 is no effect, 10 is complete control
Summary of the method: (§1)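 Herbicidal effect was estimated by eye on a ten-point control scale after plants spent twelve to sixteen days in a greenhouse following soil or foliar treatment. Foliar sprays targeted plants at one to four leaves; all doses were formulated in a non-phytotoxic solvent with surfactant.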

[2] = test system: blackgrass; assay: Test B pre/postemergence blackgrass; assay type: in vivo, Alopecurus myosuroides
Summary of the method: as §1

[3] = test system: surinam grass; assay: Test B pre/postemergence surinam grass; assay type: in vivo, Brachiaria decumbens
Summary of the method: as §1

[4] = test system: corn; assay: Test B pre/postemergence corn; assay type: in vivo, Zea mays
Summary of the method: as §1

[5] = test system: crabgrass; assay: Test B pre/postemergence crabgrass; assay type: in vivo, Digitaria sanguinalis
Summary of the method: as §1

[6] = test system: pigweed; assay: Test B pre/postemergence pigweed; assay type: in vivo, Amaranthus retroflexus
Summary of the method: as §1

[7] = test system: rape; assay: Test B pre/postemergence rape; assay type: in vivo, Brassica napus
Summary of the method: as §1

[8] = test system: soybean; assay: Test B pre/postemergence soybean; assay type: in vivo, Glycine max
Summary of the method: as §1

[9] = test system: sugar beet; assay: Test B pre/postemergence sugar beet; assay type: in vivo, Beta vulgaris
Summary of the method: as §1

[10] = test system: velvetleaf; assay: Test B pre/postemergence velvetleaf; assay type: in vivo, Abutilon theophrasti
Summary of the method: as §1

[11] = test system: wheat; assay: Test B pre/postemergence wheat; assay type: in vivo, Triticum aestivum
Summary of the method: as §1

[12] = test system: wild oat; assay: Test B pre/postemergence wild oat; assay type: in vivo, Avena fatua
Summary of the method: as §1

[13] = test system: purple nutsedge; assay: Test B pre/postemergence purple nutsedge; assay type: in vivo, Cyperus rotundus
Summary of the method: as §1

[14] = test system: rice; assay: Test B flood test rice; assay type: in vivo, Oryza sativa
Summary of the method: (§2)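 Plants were grown to the 2-leaf stage before treatment with test chemical, then held in a greenhouse for twelve to sixteen days. Injury was visually rated against untreated controls on a 0–10 scale, where 0 is no effect and 10 is complete control.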

[15] = test system: smallflower flatsedge; assay: Test B flood test smallflower flatsedge; assay type: in vivo, Cyperus difformis
Summary of the method: as §2

[16] = test system: duck salad; assay: Test B flood test duck salad; assay type: in vivo, Heteranthera limosa
Summary of the method: as §2

[17] = Postemergence, Rate 62 g/ha, scale 0 to 10, 0 is no effect, 10 is complete control
[18] = Postemergence, Rate 125 g/ha, scale of 0 to 10 where 0 is no effect and 10 is complete control
[19] = Postemergence, Rate 250 g/ha, scale of 0 to 10, 0 is no effect, 10 is complete control
[20] = Preemergence, Rate 62 g/ha, scale of 0 to 10 where 0 is no effect and 10 is complete control
[21] = Preemergence, Rate 125 g/ha, scale of 0 to 10 where 0 is no effect and 10 is complete control
[22] = Preemergence, Rate 250 g/ha, scale 0 to 10 (0 no effect, 10 complete control)
[23] = Preemergence, Rate 500 g/ha, scale of 0 to 10 where 0 is no effect and 10 is complete control
[24] = Rate 500 g/ha, Postemergence, scale 0 to 10, 0 is no effect, 10 is complete control
[25] = Rate 62 g/ha, flood test species, Pre-emergence, visual evaluation after twelve to sixteen days
[26] = Rate 125 g/ha, under heading Pre-emergence, flood test species, visual evaluation after twelve to sixteen days
[27] = Rate 250 g/ha, Pre-emergence (flood test species), scale 0 to 10, 0 is no effect, 10 is complete control
[28] = Rate 500 g/ha, Pre-emergence section of Table B, 0 to 10 scale (0 no effect, 10 complete control)

**Q.** Which results are given for `CC[C@@H](C)n1c(=O)on(C(=O)N(c2ccc(F)cc2F)C(C)C)c1=O` [Compound 667]?
**A.** Plant response rating, Bedstraw [1]: 0; Plant response rating, Blackgrass [2, 17]: 6; Blackgrass plant response rating [2, 18]: 8; Blackgrass plant response rating [2, 19]: 8; Blackgrass plant response rating [2, 20]: 8; Blackgrass plant response rating [2, 21]: 8; Plant response rating, Blackgrass [2, 22]: 8; Plant response rating, Blackgrass [2, 23]: 10; Blackgrass plant response rating [2, 24]: 8; Plant response rating, B. signalgrass [3, 17]: 0; Plant response rating, B. signalgrass [3, 18]: 4; B. signalgrass plant response rating [3, 19]: 6; B. signalgrass plant response rating [3, 20]: 3; B. signalgrass plant response rating [3, 21]: 5; Plant response rating, B. signalgrass [3, 22]: 8; Plant response rating, B. signalgrass [3, 23]: 8; B. signalgrass plant response rating [3, 24]: 7; Plant response rating, Corn [4, 17]: 4; Corn plant response rating [4, 18]: 4; Corn plant response rating [4, 19]: 4; Corn plant response rating [4, 20]: 0; Corn plant response rating [4, 21]: 4; Plant response rating, Corn [4, 22]: 7; Plant response rating, Corn [4, 23]: 10; Corn plant response rating [4, 24]: 5; Plant response rating, Crabgrass [5, 17]: 6; Crabgrass plant response rating [5, 18]: 8; Crabgrass plant response rating [5, 19]: 9; Crabgrass plant response rating [5, 20]: 8; Crabgrass plant response rating [5, 21]: 8; Plant response rating, Crabgrass [5, 22]: 10; Plant response rating, Crabgrass [5, 23]: 10; Crabgrass plant response rating [5, 24]: 10; Plant response rating, Redroot pigweed [6, 17]: 2; Redroot pigweed plant response rating [6, 18]: 5; Redroot pigweed plant response rating [6, 20]: 10; Redroot pigweed plant response rating [6, 21]: 10; Plant response rating, Redroot pigweed [6, 22]: 10; Plant response rating, Redroot pigweed [6, 23]: 10; Redroot pigweed plant response rating [6, 24]: 7; Plant response rating, Rape [7, 17]: 0; Rape plant response rating [7, 18]: 4; Rape plant response rating [7, 20]: 7; Rape plant response rating [7, 21]: 8; Plant response rating, Rape [7, 22]: 10; Plant response rating, Rape [7, 23]: 10; Rape plant response rating [7, 24]: 6; Plant response rating, Soybean [8, 17]: 2; Soybean plant response rating [8, 18]: 3; Soybean plant response rating [8, 20]: 0; Soybean plant response rating [8, 21]: 3; Plant response rating, Soybean [8, 22]: 6; Plant response rating, Soybean [8, 23]: 7; Plant response rating, Sugarbeets [9, 17]: 0; Sugarbeets plant response rating [9, 18]: 0; Sugarbeets plant response rating [9, 20]: 5; Sugarbeets plant response rating [9, 21]: 7; Plant response rating, Sugarbeets [9, 22]: 8; Plant response rating, Sugarbeets [9, 23]: 10; Sugarbeets plant response rating [9, 24]: 3; Plant response rating, Velvetleaf [10, 17]: 5; Velvetleaf plant response rating [10, 18]: 6; Velvetleaf plant response rating [10, 20]: 6; Velvetleaf plant response rating [10, 21]: 6; Plant response rating, Velvetleaf [10, 22]: 8; Plant response rating, Velvetleaf [10, 23]: 10; Velvetleaf plant response rating [10, 24]: 8; Plant response rating, Wheat [11, 17]: 0; Wheat plant response rating [11, 18]: 0; Wheat plant response rating [11, 20]: 2; Wheat plant response rating [11, 21]: 2; Plant response rating, Wheat [11, 22]: 5; Plant response rating, Wheat [11, 23]: 6; Wheat plant response rating [11, 24]: 5; Plant response rating, Wild oats [12, 17]: 0; Wild oats plant response rating [12, 18]: 4; Wild oats plant response rating [12, 20]: 4; Wild oats plant response rating [12, 21]: 8; Plant response rating, Wild oats [12, 22]: 8; Plant response rating, Wild oats [12, 23]: 10; Wild oats plant response rating [12, 24]: 6; Plant response rating, Nutsedge [13, 17]: 0; Nutsedge plant response rating [13, 18]: 0; Nutsedge plant response rating [13, 20]: 0; Nutsedge plant response rating [13, 21]: 0; Plant response rating, Nutsedge [13, 22]: 3; Plant response rating, Nutsedge [13, 23]: 7; Nutsedge plant response rating [13, 24]: 0; Plant response rating, Rice (0 to 10 scale, 0 is no effect, 10 is complete control) [14, 25]: 0; Rice plant response rating (0 to 10 scale, 0 is no effect, 10 is complete control) [14, 26]: 0; Rice plant response rating [14, 27]: 0; Rice plant response rating [14, 28]: 0; Plant response rating, S. Flatsedge (0 to 10 scale, 0 is no effect, 10 is complete control) [15, 25]: 0; S. Flatsedge plant response rating (0 to 10 scale, 0 is no effect, 10 is complete control) [15, 26]: 0; S. Flatsedge plant response rating [15, 27]: 0; S. Flatsedge plant response rating [15, 28]: 0; Plant response rating, Ducksalad (0 to 10 scale, 0 is no effect, 10 is complete control) [16, 25]: 0; Ducksalad plant response rating (0 to 10 scale, 0 is no effect, 10 is complete control) [16, 26]: 0; Ducksalad plant response rating [16, 27]: 0; Ducksalad plant response rating [16, 28]: 0
